From paper PMC6054517, “Design and synthesis of novel oridonin analogues as potent anticancer agents” (Journal of Enzyme Inhibition and Medicinal Chemistry, 2018)
Read-outs that look alike come from different tables or passages of the source.

What was measured:
AGS = assay: MTT antiproliferative assay, AGS cells; assay type: cell-based, human; conditions: for IC50: Homo sapiens, AGS, 48 h, MTT, means ± SD, n = 3; for Selectivity index AGS: IC50 on normal cells (L02)/IC50 on tumour cells (AGS)
From the text: (§1) Human gastric cancer (AGS), human differentiation of advanced gastric cancer (MGC803), human colorectal cancer (HCT116), human lung cancer (A549), human hepatocellular carcinoma (Bel7402) and human cervical cancer (HeLa) cell lines were obtained from the State Key Laboratory of Natural Resources and Functional Molecules of the Changbai Mountain (Yanbian University) and maintained in Dulbecco’s modified Eagle’s medium and RPMI Media 1640 (RPMI1640), supplemented with 10% foetal bovine serum 100 IU/ml penicillin, […] and 2 mmol/l L-glutamine (Sigma) at 37 °7 in a humidified atmosphere containing 5% CO2.
(§2) All six human cancer cell lines and normal L02 cells were seeded in 96-well plates at the appropriate densities to ensure exponential growth throughout the experimental period (9 × 10^3 cells per well) and then allowed to adhere for 24 h. The cells were then treated for 48 h with four serial dilutions (100, 50, 10, and 1 µM) of each compound. 5-Fluorouracil (5-FU) was used as the positive control. After incubation for 48 h, 10 µl MTT solution was added to each well to give a final concentration of 2 mg ml^−1. The plates were then incubated for further 4 h. After incubation, the MTT solution was removed and 150 µl DMSO was added to each well to solubilise the formed product. To ensure complete solubilisation, the plates were shaken vigorously for 10 min at room temperature. The optometric density (OD) was read on a microplate reader (ELx800, BioTek, Highland Park, Winooski, VT) at a wavelength of 492 nm and the data were subsequently analysed. The percentage of cell growth inhibition was calculated from the following equation: inhibitory rate (%) = [1–(ODtreated–ODblank)/(ODcontrol–ODblank)] × 100.
(§3) The MTT assay was performed using a standard protocol.

HCT116 [1] = assay: MTT antiproliferative assay, HCT116 cells; assay type: cell-based, human; conditions: for IC50: MTT, 48 h, means ± SD, n = 3; for Selectivity index HCT116: IC50 on normal cells (L02)/IC50 on tumour cells (HCT116)
From the text: as §1, §2, §3

Hela = assay: MTT antiproliferative assay, HeLa cells; assay type: cell-based, human; conditions: for IC50: Homo sapiens, HeLa, MTT, 48 h, means ± SD, n = 3; for Selectivity index Hela: IC50 on normal cells (L02)/IC50 on tumour cells (Hela)
From the text: as §1, §2, §3

[2] = test system: AGS, MGC803, Bel7402, HCT116, A549, and HeLa; assay: MTT assay, overall statement on six tumour cell lines; assay type: cell-based, human; conditions: six cancer cell lines
From the text: as §1, §2, §3

HCT116 cells [3] = assay: Apoptosis by flow cytometry (annexin V-FITC/PI); assay type: cell-based, human; conditions: HCT116, 5 µM, 48 h; vehicle 6.20%
Protocol: Apoptosis was detected using an Apoptosis Detection Kit (Invitrogen, Eugene, OR). Briefly, cells were plated in six-well plates (1.0 × 10^6 cells per well) and incubated at 37 °C for 12 h. Exponentially growing cells were then incubated with compound 2p at different concentrations (0 , 5.0 µM) and oridonin at 5.0 µM. Following 48 h of incubation, the cells were collected and washed twice with PBS, once with 1 × binding buffer, and then stained with 5 µM annexin V-FITC and 2.5 µM PI in 1 × binding buffer for 30 min at room temperature in the dark. Apoptotic cells were quantified using a FACSCalibur flow cytometer with the Cell Quest software (Becton-Dickinson).
Because compound 2p arrested the cells in the G2 phase, we investigated whether it also causes apoptosis. HCT116 cells were treated with the vehicle, compound 2p (5 µM), or oridonin (5 µM) for 48 h, and then stained with annexin V-FITC and PI.

HCT116 cells [4] = assay: Cell cycle distribution by flow cytometry (PI); assay type: cell-based, human; conditions: HCT116, 5 μM, 48 h; control 19.35%
Protocol: HCT116 cells were plated in six-well plates (1.0 × 10^6 cells per well) and incubated at 37 °7 for 12 h. Exponentially growing cells were then incubated with compound 2p at different concentrations (0 , 5.0 µM) and oridonin at 5.0 µM. After 48 h, the cells were centrifuged at 1000 rpm for 10 min and then fixed in 70% ethanol at −20 °0 for at least 24 h. The cells were subsequently resuspended in phosphate-buffered saline (PBS) containing 50 µg ml^−1 RNase A and 50 µg ml^−1 PI. The cellular DNA content for the cell cycle distribution analysis was measured by flow cytometry using a FACSCalibur flow cytometer with Cell Quest software (Becton-Dickinson, Franklin Lakes, NJ), plotting at least 30,000 events per sample. The percentage of cells in the G1, S and G2 phases of the cell cycle were determined using the ModFit LT V4.0 software package (Verity Software, Topsham, ME).
Numerous cytotoxic compounds exert their antiproliferative effect by inducing cell cycle arrest (at a particular cell cycle checkpoint), apoptosis, or both[25]. These mechanisms are considered to be effective anticancer strategies. We used fluorescence-activated cell sorting analysis to explore the mechanism by which compound 2p reduced the viability of HCT116 cells. Compound 2p and oridonin were selected and tested against HCT116 cell lines at a concentration of 5 µM.

A549 = assay: MTT antiproliferative assay, A549 cells; assay type: cell-based, human; conditions: for IC50: Homo sapiens, A549, MTT, 48 h, means ± SD, n = 3; for Selectivity index A549: IC50 on normal cells (L02)/IC50 on tumour cells (A549)
From the text: as §1, §2, §3

L02 = assay: MTT assay on normal cell line L02; assay type: cell-based; conditions: normal human liver cell line L02, MTT, 48 h
Protocol: as §2, with “5-Fluorouracil (5-FU) was used as the positive control.” left out
Lack of selective cytotoxicity is the main factor that restricts the dose of most conventional chemotherapeutic agents. […] Selectivity indexes between cancer cells and L-02 cells were calculated.

MGC803 = assay: MTT antiproliferative assay, MGC803 cells; assay type: cell-based, human; conditions: for IC50: Homo sapiens, MGC-803, MTT, 48 h, means ± SD, n = 3; for Selectivity index MGC803: IC50 on normal cells (L02)/IC50 on tumour cells (MGC803)
From the text: as §1, §2, §3

Bel7402 = assay: MTT antiproliferative assay, Bel7402 cells; assay type: cell-based, human; conditions: for IC50: Homo sapiens, Bel-7402, MTT, 48 h, means ± SD, n = 3
From the text: as §1, §2, §3

HCT116 [5] = conditions: cited from earlier work

IC50 (AGS)	IC50 (HCT116 [1]; Homo sapiens, HCT-116, 48 h)	IC50 (HCT116 [1])	IC50 (Hela)	IC50 (A549)	IC50 (MGC803)	IC50 (Bel7402)	SMILES	Selectivity index AGS (AGS)	Selectivity index HCT116 (HCT116 [1])	IC50 value in L02 cells relative to that in HCT116 cells (selectivity) (HCT116 [1]; L02 versus HCT116)	Selectivity index Hela (Hela)	antiproliferative activities against the six tumour cell lines (in words) [2]	percentage of total apoptotic cells (right quadrants, Q2 + Q3) (HCT116 cells [3])	percentage of G2 cell population (HCT116 cells [4])	Selectivity index A549 (A549)	IC50 (L02)	Selectivity index MGC803 (MGC803)	IC50 (HCT116 [5])	Selectivity index Bel7402 (Bel7402; IC50 on normal cells (L02)/IC50 on tumour cells (Bel7402))
4.09 ± 0.65 µM	1.08 µM	1.05 ± 0.23 µM	6.33 ± 0.96 µM	5.9 ± 0.52 µM	4.54 ± 0.94 µM	3.21 ± 0.58 µM	CC(C)=CCOc1ccc(/C=C2/C(=O)[C@]34[C@H](O)[C@H]2CC[C@H]3C23CO[C@]4(O)[C@@H](O)[C@@H]2C(C)(C)CC[C@@H]3O)cc1 [Compound 2p, (1S,4aR,5S,6S,6aR,9S,11aS,14R,E)-1,5,6,14-tetrahydroxy-4,4-dimethyl-8-(4-((3-methylbut-2-en1yl)oxy)benzylidene)decahydro-1H-6,11b-(epoxymethano)-6a,9-methanocyclohepta[a]naphthalen-7(8H)-one]	3.28	6.55	6.5 fold	1.09	more potent antiproliferative activities in vitro than oridonin	60.94%	41.46%	1.17	6.88 ± 1.12 µM	0.75	–	–
–	–	–	–	–	–	–	CC(C)=CCOc1ccc(C(=O)/C=C/c2ccc(Cl)cc2)c(O)c1 [Compound 4]	–	–	–	–	–	–	–	–	–	–	0.89 µM	–
8.35 ± 0.41 µM	6.84 ± 0.98 µM	–	15 ± 2.01 µM	24.7 ± 2.11 µM	9.18 ± 1.01 µM	9.59 ± 1.19 µM	C=C1C(=O)[C@]23[C@H](O)[C@H]1CC[C@H]2[C@@]12CO[C@]3(O)[C@@H](O)[C@@H]1C(C)(C)CC[C@@H]2O [Oridonin]	0.83	1.02	–	0.46	–	24.84%	37.80%	0.28	6.97 ± 0.98 µM	0.76	–	0.73
